Drawing on PubChem BioAssay AID179 (DTP/NCI, 2004), this text covers EC50, IC50 and outcome for 72 compounds.

The structures appear in SMILES notation. Where “and” joins values, the source holds several entries; their conditions need not be identical. Equal values may be shown once. Calls of active or inactive are those of the source.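 The calls were made as follows: active = compounds giving half or more protection of infected cells from virus-caused growth loss, again on retest; inactive = the rest.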 Where a SMILES comes first, the peptide text is derived from it. [ ]: non-standard residue; d: D form. Abu = CC[CH](N)C(=O)O

In general, EC50 refers to the concentration giving half of the maximal effect. The term IC50 denotes the concentration that inhibits the measured activity by half. A high value points to a need for much substance.

For the assay, the system named is CEM cells HIV-1 protection, formazan growth assay. As to the kind of experiment: NCI AIDS Antiviral Assay. The following applies: for IC50: measured here: growth of uninfected CEM cells. The essentials:
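Protection of CEM cells against HIV-1 measured as cell growth via soluble formazan read-out, with five concentrations tested on both infected and uninfected cells; failure to protect may reflect toxicity.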

On to `Cc1cc(C)cc(Sc2c([N+](=O)[O-])ncn2C)c1`, for which the EC50 is greater than 27.5 µM and the IC50 was found to be 16.2 µM.

Regarding `COc1cccc(C2c3cc4c(cc3OC(O)C2C)OCO4)c1OC` (centres undefined), the EC50 was greater than 200 µM and the IC50 turned out to be 1.51 µM.

In the case of `CC(O[Si](c1ccccc1)(c1ccccc1)C(C)(C)C)[C@H](NC(=O)OC(C)(C)C)C(=O)O[Si](c1ccccc1)(c1ccccc1)C(C)(C)C` (some centres undefined), the EC50 is greater than 26.9 µM and the IC50 is 24 µM.

For `COC(=O)[C@@]12C=CC(=O)[C@H]3C[C@@H](C(C(C)C)C1)[C@]32OC` (some centres undefined), the result was inactive.

Regarding `O=C1N/C(=N\N=C\c2ccccc2)C2(CCCCC2)O1`, the EC50 is greater than 200 µM and the IC50 is 97.7 µM.

Turning to `COc1ccc(/C=C2\CCCC(CN(C)C)C2=O)cc1` (centres undefined), the EC50 was greater than 200 µM and the IC50 is 1.02 µM.

`O=C1OC(CC(=O)c2ccccc2Cl)C(Cl)=C1Cl` (centres undefined): the EC50 was greater than 117 µM and the IC50 turned out to be 69.2 µM.

With `NCc1ccc(O)c(O)c1O`, the EC50 was greater than 200 µM and the IC50 was 9.33 µM.

In the case of `c1cc2sc3ccc(OCCCN4CCCCC4)cc3c2cc1OCCCN1CCCCC1`, the EC50 is greater than 93.3 µM and the IC50 amounted to 1.58 µM.

As for `CC[P+](C)(Cc1ccccc1)c1ccccc1` (centres undefined), the EC50 is 0.0631 µM and the IC50 worked out at 81.3 µM.

With `NC1=Nc2ccccc2Sc2nnc(-c3ccc(Cl)cc3)n21`, the EC50 was greater than 200 µM and the IC50 turned out to be 115 µM.

As to `C=C(C(=C)P(=S)(C(C)C)C(C)C)P(=S)(C(C)C)C(C)C`, the EC50 was greater than 74.1 µM and the IC50 is greater than 74.1 µM.

As for `CCC(N)C(=O)NC(C(=O)NC(CC(C)C)C(=O)NC(CC(N)=O)C(=O)NC(Cc1ccccc1)C(=O)O)C(C)O` (centres undefined) (H-[Abu]TLNF-OH; configuration not given here), the outcome was inactive.

Consider `CC1CC2=C(S(=O)(=O)c3ccccc3)CC(S(=O)(=O)c3ccccc3)(S(=O)(=O)c3ccccc3)CC21` (centres undefined), for which the EC50 is greater than 50.1 µM and the IC50 is greater than 50.1 µM.

As to `O=c1[nH]nc(-c2ccccc2)n1-n1cccc1`, the EC50 is greater than 200 µM and the IC50 was determined as 97.7 µM.

Turning to `O=[N+]([O-])C1=C(c2ccccc2)SC(Br)=C(c2ccccc2)S1`, the EC50 is greater than 100 µM and the IC50 was 0.813 µM.

For the compound `CN(C)C(=O)OC1C(=O)N(C)c2ccc(Cl)cc2C2(c3ccccc3)N1C2(Cl)Cl` (centres undefined), the EC50 is greater than 200 µM and the IC50 is 10.7 µM.

In the case of `CC1=C(Br)CC23C(C1)OC(Br)(C=CC2(C)O)C3(C)C` (centres undefined) (tested in a mixture with another compound), the outcome was inactive.

For the compound `CO/C(=N\N=C\c1ccc(OC)cc1OC)c1ccncc1`, the EC50 is greater than 229 µM and the IC50 is 105 µM.

`N#CCCN(C1=NN(C(=O)CC(=O)Nc2ccccc2Cl)C(c2ccccc2)C1)c1ccc(Cl)cc1` (centres undefined): the EC50 is greater than 3.89 µM and the IC50 was greater than 3.89 µM.

On to `CN(C)c1ccc(C=Cc2ccc([N+](=O)[O-])cc2)cc1.[C-]#[O+].[C-]#[O+].[C-]#[O+].[Cr]`, for which the EC50 was greater than 20 µM and the IC50 worked out at 2.4 µM.

With `O=S(=O)(c1cc(Cl)ccc1Cl)N1CCN(c2cccc(Cl)c2)CC1`, the result was inactive.

On to `Cc1cc(N(CCC#N)CCC#N)ccc1/C(N=Nc1ccc(Cl)cc1)=N\NC(=O)c1cc(Cl)ccc1O`, for which the EC50 was greater than 200 µM and the IC50 is 102 µM.

For `Cc1cc(NCCCCCCNc2cc(C)nc3ccc(Cl)cc23)c2cc(Cl)ccc2n1`, the EC50 is greater than 6.92 µM and the IC50 was greater than 6.92 µM.

Turning to `O=[N+]([O-])c1ccc2c(c1)NP(=S)(Oc1ccccc1)N2` (centres undefined), the EC50 was greater than 603 µM and the IC50 is 81.3 µM.

As to `CC(=O)OC1CCn2c1nc1cc([N+](=O)[O-])c(C)cc12` (centres undefined), the EC50 was greater than 200 µM and the IC50 is greater than 200 µM.

On to `C[C@@H](NC(=O)c1ccccc1SC(=O)CCCC[n+]1ccccc1)C(N)=O`, for which the EC50 was 0.741 µM and the half-inhibitory concentration (IC50) was 105 µM.

For `CCCCCCCCCCCCCOC(=O)CC(C(=O)OCCCCCCCCCCCCC)S(=O)(=O)O` (centres undefined), the EC50 is greater than 200 µM and the IC50 stood at 102 µM.

In the case of `OC1(c2ccccc2)CC2CCC(C1)N2CCc1ccccc1` (centres undefined), the EC50 was greater than 200 µM and the IC50 is 102 µM.

Turning to `CN1C(CC(O)(c2ccccc2)c2ccccc2)CCCC1CC(O)(c1ccccc1)c1ccccc1` (centres undefined), the EC50 was greater than 200 µM and the IC50 was 57.5 µM.

With `O=C1C(c2ccc([N+](=O)[O-])cc2)=[N+]([O-])c2ccc([N+](=O)[O-])cc21`, the result was inactive.

For the compound `CCCCCCCCCCCCCCCCCCNC(=S)/N=C\C(C(=O)Nc1ccccc1C)=C(/C)O`, the EC50 was greater than 200 µM and the IC50 was found to be 115 µM.

Regarding `Nc1ccc2c(SCC(=O)Nc3ccccc3-c3ccccc3NC(=O)CSc3c4ccccc4nc4cc(N)ccc34)c3ccccc3nc2c1`, the EC50 is greater than 7.24 µM and the IC50 was greater than 7.24 µM.

Take `Cc1ccccc1/C=C/c1csnn1`: the EC50 is greater than 129 µM and the IC50 was greater than 129 µM.

For the compound `CCCCCCO/N=C\c1c2c(O)c3c(O)c(C)c4c(c3c1O)C(=O)C(C)(O/C=C\C(OC)C(C)C(OC(C)=O)C(C)C(O)C(C)C(O)C(C)/C=C\C=C(\C)C(=O)N2)O4` (centres undefined), the EC50 was greater than 200 µM and the IC50 came out at 5.37 µM.

In the case of `N#CCC(=O)NN=C1CCCCC1`, the EC50 was greater than 200 µM and the IC50 was greater than 200 µM.

For the compound `COc1ccc(OC2OC(CO)C(OCc3ccccc3)C(OCc3ccccc3)C2OCc2ccccc2)cc1` (centres undefined), the EC50 was greater than 200 µM and the IC50 amounted to 12 µM.

Consider `CN(C(=O)CCC(=O)O)c1ccccc1C(=O)O`, for which the EC50 is greater than 200 µM and the IC50 is greater than 200 µM.

Turning to `O=S(CC(O)c1ccccc1)c1ccccc1` (centres undefined), the EC50 is greater than 200 µM and the IC50 worked out at 23.4 µM.

For `COc1ccc(-c2nnc(-c3nsc4ccccc34)o2)cc1`, the EC50 was greater than 17 µM and the IC50 was greater than 17 µM.

With `CC/C(Cl)=N\OC(=O)NCc1ccc(F)cc1`, the EC50 was greater than 20 µM and the IC50 came out at 4.47 µM.

As for `COC1O[C@H]2[C@H]3[C@@H]1[C@@H](OS(=O)(=O)c1ccc(C)cc1)C(=O)N3C[C@H]2O` (some centres undefined), the EC50 is 18.2 µM and the IC50 is 141 µM.

Consider `O=c1ccn([C@@H]2C[C@H]2CO)c(=O)[nH]1`, for which the outcome was inactive.

As for `COc1ccc(-c2c(O)c3cccc(-c4ccccc4)c3oc2=O)cc1`, the EC50 was greater than 200 µM and the IC50 was 93.3 µM.

As for `Cc1cc(Cl)ccc1N1C(=O)C(=O)C(c2nc3ccccc3o2)C(=O)C1=O`, the result was inactive.

Turning to `Cc1oc2nc(N(C)C)n3c(C)nnc3c2c1C`, the result was inactive.

In the case of `CSS(=O)(=O)C(c1ccccc1)c1ccccc1`, the EC50 is greater than 112 µM and the IC50 came out at 49 µM.

As to `O=C1C[C@H](c2ccccc2)O[C@@H](c2ccccc2)C1`, the EC50 was greater than 200 µM and the IC50 is greater than 200 µM.

On to `Brc1cc(C2OCCCO2)ccc1OCc1ccccc1`, for which the EC50 was greater than 53.7 µM and the IC50 was greater than 53.7 µM.

Take `COC(=O)/N=[N+](\[O-])C(c1ccccc1)c1ccccc1`: the EC50 was greater than 200 µM and the IC50 was found to be 191 µM.

Consider `N=c1oc2ccc([N+](=O)[O-])cc2cc1C(=O)NCc1ccccc1`, for which the EC50 is greater than 200 µM and the IC50 is 14.1 µM.

Consider `O=C1CC23CC4CC(CC(C4)C2O1)C3` (centres undefined), for which the EC50 is greater than 200 µM and the IC50 was greater than 200 µM.

For the compound `CC(=O)OC1CC2CC(=O)CC1N2C` (centres undefined), the EC50 was greater than 200 µM and the IC50 is greater than 200 µM.

Take `C[N+]12CCC34c5ccccc5NC3C3C(CC(=O)[O-])OCC=C(C1)C3CC42` (centres undefined): the outcome was inactive.

As to `COC(=O)C(=O)C(C(=O)C(=O)Nc1ccccc1C(=O)OC)c1nc2ccc(C(=O)c3ccccc3)cc2[nH]c1=O` (centres undefined), the EC50 is greater than 89.1 µM and the IC50 amounted to 52.5 µM.

`O=C1c2ccccc2N2OC3(N4CCOCC4)CCCC3C12c1ccccc1` (centres undefined): the EC50 was greater than 5.37 µM and the IC50 was greater than 5.37 µM.

Regarding `Cn1c(=N)c2cnn(-c3ccccc3)c2n(C)c1=O`, the EC50 was greater than 490 µM and the IC50 is greater than 490 µM.

As for `COc1cc2c(oc(=O)c3c4occc4cc(OC)c23)c2cccc(O)c12`, the EC50 is greater than 1.45 µM and the IC50 is greater than 1.45 µM.

With `O=C(COc1ccc(OCC(=O)N2C(=O)CC(=O)N(c3ccc(Cl)cc3)C2=S)cc1)N1C(=O)CC(=O)N(c2ccc(Cl)cc2)C1=S`, the EC50 is greater than 200 µM and the IC50 stood at 42.7 µM.

Take `CCOc1ccc(NC(=O)/C(=N\NC(C)(C)C)C2C(=O)Nc3ccccc3S2=O)cc1` (centres undefined): the EC50 is greater than 42.7 µM and the IC50 is greater than 42.7 µM.

As for `CSc1ccc2nncc(SC)c2c1`, the EC50 is greater than 158 µM and the IC50 was 57.5 µM.

Consider `NCc1c(C(N)=O)ncn1Cc1ccccc1`, for which the outcome was inactive.

With `O=C(NC(OCc1ccccc1)(C(F)(F)F)C(F)(F)F)OCc1ccccc1`, the EC50 is greater than 200 µM and the IC50 turned out to be 32.4 µM.

Turning to `O=C1C(Cl)N(c2ccccc2)C1c1c[nH]c2ccccc12` (centres undefined), the EC50 was greater than 316 µM and the IC50 worked out at 288 µM.

With `Cc1ccc(NC(=O)CCC(=O)C2Cc3ccccc3C2=O)cc1C` (centres undefined), the EC50 was greater than 741 µM and the IC50 stood at 724 µM.

For `N#Cc1nc(CCN2C(=O)c3ccccc3C2=O)oc1N`, the EC50 was greater than 200 µM and the IC50 was greater than 200 µM.

For the compound `Nc1cc(Nc2ccc(Cl)[nH]c2=S)nc(N)n1`, the EC50 was greater than 186 µM and the IC50 worked out at 5.75 µM.

With `CCc1nnc(CC)n1NCCCC(=O)O`, the EC50 was greater than 200 µM and the IC50 is greater than 200 µM.

Turning to `COc1ccc(-c2c(C)oc3cc(OC(C)=O)ccc3c2=O)cc1`, the EC50 is greater than 200 µM and the IC50 turned out to be 30.9 µM.

Regarding `O=C(N[C@@H](CSSC[C@H](NC(=O)OCc1ccccc1)C(=O)O)C(=O)O)OCc1ccccc1`, the EC50 was greater than 200 µM and the IC50 amounted to 74.1 µM.

On to `CNCCOC(c1ccccc1)c1ccccc1C` (centres undefined), for which the EC50 is greater than 200 µM; the IC50 is 93.3 µM and 25.1 µM.

For the compound `ClC/C=C\C[N+]12CN3CN(CN(C3)C1)C2`, the EC50 is greater than 200 µM and the IC50 is 24 µM.
